# In patent US10745355B2, “Anti-cancer compounds” (THE UNIVERSITY OF SYDNEY, priority 2015, dated 2020):
# Columns and labels:
# [1] = biological target: T1, MERTK (Homo sapiens, UniProt Q12866); assay: Kinase profiling (ProQinase 33PanQinase Activity Assay), MERTK (table: MERK); format: biochemical
# T1 sequence (Q12866 21-999): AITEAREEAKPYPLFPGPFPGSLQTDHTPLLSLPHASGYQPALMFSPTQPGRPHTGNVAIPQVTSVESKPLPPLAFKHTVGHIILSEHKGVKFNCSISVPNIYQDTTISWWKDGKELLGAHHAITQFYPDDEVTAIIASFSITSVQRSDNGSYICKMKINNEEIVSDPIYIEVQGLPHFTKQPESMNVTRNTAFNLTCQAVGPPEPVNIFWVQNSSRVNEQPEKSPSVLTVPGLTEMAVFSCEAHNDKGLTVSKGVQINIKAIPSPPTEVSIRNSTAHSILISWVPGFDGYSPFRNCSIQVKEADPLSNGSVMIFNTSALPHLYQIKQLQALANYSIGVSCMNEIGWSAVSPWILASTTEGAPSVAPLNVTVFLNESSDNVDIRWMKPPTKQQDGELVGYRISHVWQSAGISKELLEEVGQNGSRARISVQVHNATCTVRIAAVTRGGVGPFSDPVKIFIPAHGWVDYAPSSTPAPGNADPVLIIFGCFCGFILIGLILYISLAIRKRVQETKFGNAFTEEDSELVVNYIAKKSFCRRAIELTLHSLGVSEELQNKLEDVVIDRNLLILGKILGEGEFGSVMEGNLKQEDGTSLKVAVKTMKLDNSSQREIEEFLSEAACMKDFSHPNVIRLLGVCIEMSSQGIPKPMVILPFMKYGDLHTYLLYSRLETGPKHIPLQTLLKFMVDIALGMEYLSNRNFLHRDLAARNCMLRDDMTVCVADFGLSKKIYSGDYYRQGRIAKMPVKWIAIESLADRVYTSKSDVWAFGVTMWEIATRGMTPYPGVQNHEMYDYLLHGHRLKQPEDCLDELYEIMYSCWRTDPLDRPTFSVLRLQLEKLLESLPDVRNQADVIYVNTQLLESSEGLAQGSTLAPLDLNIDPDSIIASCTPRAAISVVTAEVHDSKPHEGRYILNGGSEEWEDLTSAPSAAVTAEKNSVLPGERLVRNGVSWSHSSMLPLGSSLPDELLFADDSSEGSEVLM
# Protocol: (§1) The kinase profiling of compound 1-08 at 10 and 50 μM was performed by ProQinase GmbH (Freiburg, Germany). A radiometric protein kinase assay (^33PanQinase® Activity Assay) and the non-radiometric ADP-Glo™ Assay (Promega, Madison, Wis., USA) were used for measuring kinase activity of 387 protein kinases and 13 lipid kinases, respectively. The results are shown in Table 3 (only the top 10 kinases are listed, and the selectivity score describes the portion of kinases inhibited more than 50% in relation to all tested kinases).
# At 10 μM, compound 1-08 inhibited MERTK at the 51% level. Several other kinases were inhibited at 50 μM concentration.
# [2] = tested on: U251; assay: Alamar blue cell viability assay, U251 cells; format: cell-based; settings: Homo sapiens, U-251; 72 hours of treatment; mean±SEM, three independent experiments
# Protocol: U87 and U251 cell lines were obtained from the European Collection of Cell Cultures (ECACC) through CellBank Australia. U87-EGFRvIII cell line was obtained from their lab of origin (Nishikawa et al., 1994, Proc Natl Acad Sci USA 91: 7727-7731) and tested for EGFR amplification and mutation by immunoblotting and flow cytometry. Cells were cultured in DMEM medium (Invitrogen by Life Technologies, Carlsbad, Calif., USA) supplemented with 10% FBS (Sigma-Aldrich) at 37° C. and 5% CO2. Primary gliomaspheres (RN1, classical; WK1, mesenchymal) were derived from glioblastoma specimens (Day et al., 2013, Cancers 5: 357-371; Day et al., 2013, Cancer Cell 23: 238-248), maintained in StemPro NSC serum-free media supplemented with EGF and FGF (all Life Technologies), and grown on matrigel-coated flasks (Pollard et al., 2009, Cell Stem Cell 4: 568-580).
# Cell viability was determined using Alamar blue assay after 72 hours of treatment (Table 2). EC50 values were calculated using non-linear regression on Graph Pad Prism version 5. c Log P values calculated using ChemBioDraw Software. Results are mean±SEM from three independent experiments performed in triplicates.
# [3] = biological target: RON (Homo sapiens, UniProt Q04912); assay: Kinase profiling (ProQinase 33PanQinase Activity Assay), RON; format: biochemical; settings: read-out: residual activity, RON
# Protocol: as §1
# [4] = tested on: U87 glioblastoma cells; assay: Immunofluorescence staining of β-tubulin in treated U87 cells (microtubules, multinucleated cells, mitotic spindle); format: cell-based
# Protocol: FIGS. 10A-10D. […] (10A) Compound 1-08 inhibits tubulin polymerisation in vitro. Data are expressed as mean from at least 3 independent experiments; each data point was performed in triplicates. (10B) U87 cells treated with compound 1-08 (24 h) were stained with Alexa488-labelled anti-β-tubulin antibody (green) or DAPI (blue). Treatment profoundly disturbed the microtubule network and caused formation of multinucleated cell (white arrows). White scale bar represents 50 μm. Multinucleated cells were manually counted and at least 200 cells were counted for each sample. Data in the bar graph (10C) are expressed as mean±SEM (n=3; * P<0.05, *** P<0.001; 1-way ANOVA followed by Newman-Keuls posttest). (10D) U87 cells were treated with compound 1-08 (48 h), tubulin and DNA were stained as in (10B). Treatment with 1-08 caused defective mitotic spindle formation. Representative images from 3 independent experiments are shown. White scale bar represents 2 μm.
# The effect of compound 1-08 on tubulin polymerisation and mitotic spindle formation was also investigated. The fluorescence-based tubulin polymerisation assay was conducted in the final volume of 55 μL using the Tubulin Polymerisation Assay kit (Cytoskeleton, Colo., USA) as per the manufacturer's instructions. Porcine brain tubulin was incubated with test compounds (paclitaxel, vinblastine and compound 1-08) at 37° C. and fluorescence was measured using FLUOstar Omega microplate reader (BMG Labtech, Ortenberg, Germany; excitation at 355 nm and emission at 460 nm). […] To test whether compound 1-08 alters microtubules in vivo, U87 glioblastoma cells were treated with compound 1-08 and the effect on the microtubules was determined by immunofluorescence staining of β-tubulin. […] The consequence of microtubule depolymerisation induced by compound 13 was disrupted spindle assembly (FIG. 10D). In untreated U87 cells undergoing mitosis, microtubules are assembled into bipolar spindles (control images).
# [5] = biological target: SRC (Homo sapiens, UniProt P12931); assay: Kinase profiling (ProQinase 33PanQinase Activity Assay), SRC; format: biochemical; settings: read-out: residual activity, SRC
# Protocol: as §1
# Sequence of SRC (P12931 whole entry): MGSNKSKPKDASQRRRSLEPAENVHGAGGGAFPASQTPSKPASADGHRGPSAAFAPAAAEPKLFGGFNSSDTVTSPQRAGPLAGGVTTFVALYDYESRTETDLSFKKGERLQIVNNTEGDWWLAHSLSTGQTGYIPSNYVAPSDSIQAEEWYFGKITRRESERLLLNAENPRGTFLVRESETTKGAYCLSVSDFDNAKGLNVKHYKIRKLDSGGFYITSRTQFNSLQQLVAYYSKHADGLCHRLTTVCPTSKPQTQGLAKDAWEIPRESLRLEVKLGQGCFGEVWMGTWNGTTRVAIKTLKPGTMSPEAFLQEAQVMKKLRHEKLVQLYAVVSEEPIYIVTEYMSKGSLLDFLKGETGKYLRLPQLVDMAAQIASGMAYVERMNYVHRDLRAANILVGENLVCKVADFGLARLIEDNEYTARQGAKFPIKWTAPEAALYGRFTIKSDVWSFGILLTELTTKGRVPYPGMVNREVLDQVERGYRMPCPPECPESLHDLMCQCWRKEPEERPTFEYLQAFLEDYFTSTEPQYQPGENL
# Sequence of RON (Q04912 25-1400): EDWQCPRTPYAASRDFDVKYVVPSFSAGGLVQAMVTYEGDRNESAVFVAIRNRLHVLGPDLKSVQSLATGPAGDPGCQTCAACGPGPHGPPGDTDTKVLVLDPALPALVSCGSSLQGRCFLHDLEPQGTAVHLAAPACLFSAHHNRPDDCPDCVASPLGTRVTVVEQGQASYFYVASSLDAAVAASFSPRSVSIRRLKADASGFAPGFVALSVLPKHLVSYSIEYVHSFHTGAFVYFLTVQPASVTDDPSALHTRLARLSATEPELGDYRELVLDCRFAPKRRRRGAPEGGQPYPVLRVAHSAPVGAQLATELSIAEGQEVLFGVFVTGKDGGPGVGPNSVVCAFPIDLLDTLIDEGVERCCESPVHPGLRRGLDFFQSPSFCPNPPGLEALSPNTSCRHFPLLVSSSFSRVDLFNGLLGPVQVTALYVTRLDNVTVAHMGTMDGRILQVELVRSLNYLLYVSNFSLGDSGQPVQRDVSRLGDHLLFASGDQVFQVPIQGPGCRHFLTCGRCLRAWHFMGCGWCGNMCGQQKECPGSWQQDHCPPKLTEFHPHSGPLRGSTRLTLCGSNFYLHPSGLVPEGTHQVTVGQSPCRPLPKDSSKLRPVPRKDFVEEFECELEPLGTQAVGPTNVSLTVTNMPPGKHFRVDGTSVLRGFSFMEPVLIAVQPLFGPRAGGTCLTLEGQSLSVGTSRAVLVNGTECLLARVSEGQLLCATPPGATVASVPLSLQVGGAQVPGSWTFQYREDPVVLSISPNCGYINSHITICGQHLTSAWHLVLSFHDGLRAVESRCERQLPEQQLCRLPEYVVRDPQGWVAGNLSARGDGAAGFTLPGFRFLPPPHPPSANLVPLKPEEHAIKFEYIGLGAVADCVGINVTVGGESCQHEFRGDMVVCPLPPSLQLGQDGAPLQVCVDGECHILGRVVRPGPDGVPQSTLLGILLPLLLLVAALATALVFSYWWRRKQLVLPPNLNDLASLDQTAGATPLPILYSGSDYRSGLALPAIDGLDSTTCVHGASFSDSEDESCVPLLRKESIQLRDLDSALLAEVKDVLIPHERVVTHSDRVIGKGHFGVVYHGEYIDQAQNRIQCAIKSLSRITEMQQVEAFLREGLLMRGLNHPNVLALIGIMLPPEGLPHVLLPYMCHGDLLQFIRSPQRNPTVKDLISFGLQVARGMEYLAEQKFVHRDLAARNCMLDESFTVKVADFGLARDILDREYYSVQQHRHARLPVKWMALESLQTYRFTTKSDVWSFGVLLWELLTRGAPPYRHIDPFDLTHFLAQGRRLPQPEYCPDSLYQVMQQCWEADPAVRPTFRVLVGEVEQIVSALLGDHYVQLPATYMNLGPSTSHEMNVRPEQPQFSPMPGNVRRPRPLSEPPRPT
structure (smiles),measurement,setting,value
"O=C(CCCc1ccc(-c2cnc3ccccc3c2)cc1)Nc1ccc(O)cc1 [Compound 1-08, N-(4-hydroxyphenyl)-4-(4-(quinolin-3-yl)phenyl)butanamide]",inhibition at 10 µM,[1]; 10 μM compound,51%
same,remaining activity at 10 µM,"[1]; 10 μM compound, read-out: residual activity, MERK",49%
same,remaining activity at 50 µM,"[1]; 50 μM compound, read-out: residual activity, MERK",12%
same,EC50,[2],980 ± 200 nM
same,remaining activity at 10 µM,[3]; 10 μM compound,84%
same,remaining activity at 50 µM,[3]; 50 μM compound,18%
same,effect on microtubules,"[4]; 1 and 5 μM, FIG. 10B",disassembly of microtubules
same,number of multinucleated cells,"[4]; 1 and 5 μM, FIGS. 10B and 10C",dose-dependent increase in the number of multinucleated cells
same,mitotic spindle formation,"[4]; 48 h, FIG. 10D",defective spindle formation and chromosome misalignment
same,remaining activity at 10 µM,[5]; 10 μM compound,57%
same,remaining activity at 50 µM,[5]; 50 μM compound,21%
